Experimental findings from patent publication US10016417B2, “Extended release formulation of a direct thrombin inhibitor” (Diakron Pharmaceuticals Inc., priority 2011, dated 2018) are described below.

In data set [1] the target is T1, thrombin (Homo sapiens, UniProt P00734). The experiment in a line: Single dose crossover study: activated partial thromboplastin time (aPTT). The format is in vivo. On the set-up: from tissue; host or cells: blood plasma of dosed subjects. The settings on record: 24 hrs post-dose. How it is done: (§1) As used herein, the term “activated partial thromboplastin time (aPTT)” is the period required for clot formation in recalcified blood plasma after contact activation and the addition of platelet substitutes. This measure is used to address the intrinsic and common pathways of coagulation.
(§2) Four formulations having same composition as those described in Example 1 were dosed in a clinical study. […] (reported as the international normalized ratio [INR]); (i.e. PD parameters) and (3) assess the safety of DPOC-4088 in healthy volunteers.
(§3) Twelve subjects aged 21 to 45 (mean 32.9±8.55) years were enrolled, and were dosed in 4 periods after an overnight fast and had blood drawn for PK/PD determinations immediately prior to dosing and at specified time intervals for 48 hrs post-dosing. Each dosing period was separated by a ≥5-day washout. The observed PK and PD parameters are tabulated as Table 12.

For data set [2], the target named is T1, thrombin. The experiment in a line: Single dose crossover study: ecarin clotting time (ECT). The format is in vivo. On the set-up: a prothrombin-thrombin intermediate which retains the full molecular weight of prothrombin; from tissue; host or cells: blood plasma of dosed subjects.
Method: In the assay, a known quantity of ecarin is added to the plasma of a patient treated with hirudin.
A short description of data set [3]: Single dose crossover study: safety. The format is in vivo, human. How it is done: as §2
Twelve subjects aged 21 to 45 (mean 32.9±8.55) years were enrolled, and were dosed in 4 periods after an overnight fast and had blood drawn for PK/PD determinations immediately prior to dosing and at specified time intervals for 48 hrs post-dosing. Each dosing period was separated by a ≥5-day washout.

Data set [4] relates to thrombin. Briefly: Single dose crossover study: thrombin time (TT). The format is in vivo, human. The settings on record: by 48 hrs; returned to within. How it is done:
As used herein, the term “thrombin time (TT)” is the time required for plasma fibrinogen to form […], measured as the time for clot formation after exogenous thrombin is added to citrated plasma.
as §2, §3

A short description of data set [5]: Multiple once-daily dosing study: safety. In kind it is in vivo, human. From the text:
(§4) Randomized, double-blind, placebo-controlled, stepwise study of the pharmacokinetics (PK), pharmacodynamics (PD), PK/PD characteristics and safety of multiple once-daily oral dosing of DPOC-4088 in healthy young male subjects
10 healthy volunteers participated in the first step of the multiple dose study (8 received DPOC-4088 and 2 received placebo). […] Minor AEs were reported. All AEs were grade 1, transient and were resolved. No bruising (except for puncture site hematomas) or petechiae were reported and the physical (including neurological) exams were normal in all volunteers. The lab exams were within normal limits or deviating without clinical significance.

Data set [6] deals with T1, thrombin. The experiment in a line: Multiple once-daily dosing study: ECT. In kind it is in vivo. On the set-up: a prothrombin-thrombin intermediate which retains the full molecular weight of prothrombin; from tissue; host or cells: blood plasma of dosed subjects. The settings on record: at maximum levels, from regression analyses.
Text: ECT is prolonged in a specific and linear fashion with increasing concentrations of hirudin.
Data set [7] has as its target T1, thrombin. Briefly: Single dose crossover study: prothrombin time PT (INR). In kind it is in vivo. On the set-up: from tissue; host or cells: blood plasma of dosed subjects. How it is done:
As used herein, the term “prothrombin time (PT)” is the rate at which prothrombin is converted to thrombin in citrated blood with added calcium. This is used to assess the extrinsic coagulation system of the blood
as §2, §3

The nature of data set [8]: Multiple once-daily oral dosing study, Dose Step 1 100 mg q.d.: PK. In kind it is in vivo, human. The settings on record: assuming dose linearity from Day 10 PK data. How it is done:
as §4
Preliminary Safety, PK, and PD Results Dose Step 1: 100 mg q.d.
Mean PK profiles of DPOC-4088 on Day 1 (first dose) and Day 10 (steady-state) are shown in FIGS. 14 a-b, respectively. • On Day 1, the mean PK profile was in line with observation from the previous single dose study (DPOC-001). • The degree of accumulation to steady-state levels was modest with a Day 10/Day 1 ratio for AUC24h of 1.4. […] Pharmacodynamics

Data set [9] addresses T1, thrombin. The experiment in a line: Multiple once-daily dosing study: aPTT. The format is in vivo. On the set-up: from tissue; host or cells: blood plasma of dosed subjects. The settings on record: at maximum levels, from regression analyses.
Text: as §1, §4
Mean maximum and minimum fold changes compared to baseline (Day 1, pre dose) in ECT, aPTT and PT on Day 10 are shown in Table 15. […] Minimum changes in ECT and aPTT on Day 10 were 1.12 and 1.10 respectively (Table 16). These values are lower than the target values defined in the protocol which were 2 and 1.5, respectively, at steady-state trough levels (see below). • Linear regression on the changes in ECT and aPTT versus DPOC-4088 plasma levels was performed. […] For ECT the changes would be 2.4 and 3.1 fold respectively. • For reference, for dabigatran, clinically relevant doses result in changes in aPTT of approximately 1.50 fold at trough levels and 2-fold at maximum levels. For ECT these changes are approximately 2-fold at trough levels and 3-fold at maximum levels.

Each structure is given as a SMILES string.

With `O=C(Cn1c(Cl)cnc(NCC(F)(F)c2ccccn2)c1=O)NCc1ncccc1F` [DPOC-4088, 3-fluoro-2-pyridylmethyl-3-(2,2-difluoro-2-(2-pyridyl)ethylamino)-6-chloropyrazin-2-one-1-acetamide], the “mean aPTT above the pre-dose aPTT” value at thrombin [1] (100 mg) is on record as 12-15%; at thrombin [1] (200 mg), 21-24%. Further, the “mean 24 hr ECT above the pre-dose ECT” value on thrombin [2] (100 mg dose) is on record as 21-23%; at thrombin [2] (200 mg dose), 35-36%. Besides, the safety and tolerability result in [3] (100 and 200 mg doses, both release formulations) is “safe and well-tolerated”. Moreover, the “Adverse events (AEs), subjects” value in [3] (most grade 1, unrelated or unlikely related) is 9/12. Also, in the data set on thrombin [4], the “mean TT relative to pre-dosing TT” value is on record as 1-15%. The safety conclusion entry in [5] (100 mg level, after 10 days of oral administration) is “very safe”. The “treatment emergent serious adverse events (AEs)” value in data set [5] (100 mg q.d., 8 on DPOC-4088) is “No treatment emergent serious adverse events”. Moreover, the “ECT expected fold change from baseline” value is 2.4 fold on thrombin [6] (Day 10, 200 mg once daily) and 3.1 fold on thrombin [6] (Day 10, 300 mg once daily). The “mean peak INR” value is 1.15-1.17 on thrombin [7] (single dose 100 mg formulations) and 1.28-1.30 on thrombin [7] (single dose 200 mg formulations). On thrombin [7] (single doses of 100 or 200 mg), the “time at which mean peak INRs were reached” value was determined as 4 h. Also, the “expected maximum DPOC-4088 levels” value in data set [8] (daily dose 200 mg) was roughly 2000 nM; in [8] (daily dose 300 mg) it was roughly 3000 nM. Besides, the “aPTT expected fold change from baseline” value on thrombin [9] (Day 10, 200 mg once daily) is 1.8 fold; on thrombin [9] (Day 10, 300 mg once daily), 2.2 fold.
